By IC50 is commonly meant the concentration that inhibits the measured activity by half. One may read the Ki as the dissociation constant of the complex between target and ligand, obtained from inhibition or displacement.

This note sets out measurements from ChEMBL document CHEMBL1909046, “DrugMatrix in vitro pharmacology data”.

In assay [1] the target is T1, Alpha-1D adrenergic receptor (Homo sapiens, UniProt P25100). Further: in other assays of this panel Not Active means under 50% inhibition at 10 µM.
T1 sequence (P25100 whole entry): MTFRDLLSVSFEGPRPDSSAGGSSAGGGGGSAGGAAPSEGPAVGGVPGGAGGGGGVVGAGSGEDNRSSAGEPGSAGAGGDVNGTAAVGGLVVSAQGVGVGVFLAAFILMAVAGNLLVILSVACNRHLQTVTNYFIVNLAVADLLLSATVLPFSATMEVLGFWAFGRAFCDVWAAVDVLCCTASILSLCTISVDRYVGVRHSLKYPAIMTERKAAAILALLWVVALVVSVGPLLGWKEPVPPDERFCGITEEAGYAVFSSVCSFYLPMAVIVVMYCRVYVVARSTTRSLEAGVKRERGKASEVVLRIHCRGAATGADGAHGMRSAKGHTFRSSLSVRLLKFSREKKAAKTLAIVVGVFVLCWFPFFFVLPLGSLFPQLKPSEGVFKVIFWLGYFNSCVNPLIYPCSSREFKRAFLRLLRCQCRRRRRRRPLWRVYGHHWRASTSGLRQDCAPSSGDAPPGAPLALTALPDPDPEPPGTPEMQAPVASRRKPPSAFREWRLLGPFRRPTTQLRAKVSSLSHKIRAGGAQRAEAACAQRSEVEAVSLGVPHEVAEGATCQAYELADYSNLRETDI
The class given is cell membranes, HEK293, Membrane.

For the next assay, the target named is Histamine H2 receptor (Homo sapiens, UniProt P25021). The class given is cell membranes, CHO-K1, Membrane. Further: in other assays of this panel Not Active means under 50% inhibition at 10 µM.
Chain of Histamine H2 receptor (P25021 whole entry): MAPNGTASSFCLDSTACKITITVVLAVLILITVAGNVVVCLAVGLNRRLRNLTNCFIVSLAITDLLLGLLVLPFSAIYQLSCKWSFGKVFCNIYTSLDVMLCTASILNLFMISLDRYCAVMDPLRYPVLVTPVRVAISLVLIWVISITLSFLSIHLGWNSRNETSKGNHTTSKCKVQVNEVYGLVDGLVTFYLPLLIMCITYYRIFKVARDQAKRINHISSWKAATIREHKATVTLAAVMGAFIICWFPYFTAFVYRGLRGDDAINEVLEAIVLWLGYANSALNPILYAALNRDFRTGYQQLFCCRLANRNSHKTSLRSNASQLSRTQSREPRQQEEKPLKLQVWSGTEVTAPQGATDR
Assay [2] can be described thus: DRUGMATRIX: GABAA, Chloride Channel, TBOB radioligand binding (ligand: [3H] TBOB). The assay is classed as cell membranes, Rattus norvegicus, Wistar, Cerebral cortex, Membrane. The settings on record: Not Active = under 50% inhibition at 10 µM.
Assay [3] has as its target Sodium-dependent dopamine transporter (Homo sapiens, UniProt Q01959). Nature of the assay: DRUGMATRIX: Dopamine Transporter radioligand binding (ligand: [125I] RTI-55). The settings on record: cho-k1; Not Active = under 50% inhibition at 10 µM. The class given is cell membranes, CHO-K1, Membrane.
Assay [4] is described as follows: DRUGMATRIX: Glutamate, NMDA, Agonism radioligand binding (ligand: [3H] CGP-39653). The class given is cell membranes, Rattus norvegicus, Wistar, Cerebral cortex, Membrane. The following applies: Not Active = under 50% inhibition at 10 µM.
Assay [5] concerns the target T2, Nitric oxide synthase, inducible (Mus musculus, UniProt P29477).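 Further: inhibition of iNOS enzyme activity measured with L-arginine as substrate; in other assays of this panel Not Active means under 50% inhibition at 10 µM.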
T2 sequence (P29477 whole entry): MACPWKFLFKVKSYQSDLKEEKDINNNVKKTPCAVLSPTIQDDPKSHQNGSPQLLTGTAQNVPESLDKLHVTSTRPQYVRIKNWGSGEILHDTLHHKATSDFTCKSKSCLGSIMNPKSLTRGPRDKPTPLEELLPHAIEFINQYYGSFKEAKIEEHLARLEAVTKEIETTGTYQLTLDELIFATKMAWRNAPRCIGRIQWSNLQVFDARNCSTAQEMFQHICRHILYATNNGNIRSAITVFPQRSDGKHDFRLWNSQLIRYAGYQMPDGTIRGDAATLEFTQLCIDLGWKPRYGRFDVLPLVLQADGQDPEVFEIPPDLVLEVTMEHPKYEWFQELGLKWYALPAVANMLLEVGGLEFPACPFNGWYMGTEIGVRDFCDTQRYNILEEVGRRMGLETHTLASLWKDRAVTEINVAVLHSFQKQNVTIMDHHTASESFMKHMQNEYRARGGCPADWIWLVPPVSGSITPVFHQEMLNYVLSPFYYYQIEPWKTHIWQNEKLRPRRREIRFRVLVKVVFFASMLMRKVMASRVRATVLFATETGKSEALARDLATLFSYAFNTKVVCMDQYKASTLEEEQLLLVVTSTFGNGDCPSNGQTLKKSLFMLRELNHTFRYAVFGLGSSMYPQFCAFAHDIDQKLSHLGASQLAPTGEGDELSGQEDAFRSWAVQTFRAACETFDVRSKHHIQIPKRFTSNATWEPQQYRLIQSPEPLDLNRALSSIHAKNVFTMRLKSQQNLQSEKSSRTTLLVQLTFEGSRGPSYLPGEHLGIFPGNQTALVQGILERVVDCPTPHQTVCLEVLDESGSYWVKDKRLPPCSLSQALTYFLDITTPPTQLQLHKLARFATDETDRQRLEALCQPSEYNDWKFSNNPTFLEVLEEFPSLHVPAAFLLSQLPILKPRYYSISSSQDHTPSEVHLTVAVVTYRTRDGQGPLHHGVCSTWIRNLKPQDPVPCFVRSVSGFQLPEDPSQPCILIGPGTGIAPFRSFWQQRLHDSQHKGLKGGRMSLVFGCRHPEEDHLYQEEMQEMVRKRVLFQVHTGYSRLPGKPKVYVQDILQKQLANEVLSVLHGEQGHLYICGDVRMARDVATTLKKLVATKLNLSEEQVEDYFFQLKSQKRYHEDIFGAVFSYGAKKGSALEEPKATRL
More on the design: species or system Escherichia coli.

Chain of Sodium-dependent dopamine transporter (Q01959 whole entry): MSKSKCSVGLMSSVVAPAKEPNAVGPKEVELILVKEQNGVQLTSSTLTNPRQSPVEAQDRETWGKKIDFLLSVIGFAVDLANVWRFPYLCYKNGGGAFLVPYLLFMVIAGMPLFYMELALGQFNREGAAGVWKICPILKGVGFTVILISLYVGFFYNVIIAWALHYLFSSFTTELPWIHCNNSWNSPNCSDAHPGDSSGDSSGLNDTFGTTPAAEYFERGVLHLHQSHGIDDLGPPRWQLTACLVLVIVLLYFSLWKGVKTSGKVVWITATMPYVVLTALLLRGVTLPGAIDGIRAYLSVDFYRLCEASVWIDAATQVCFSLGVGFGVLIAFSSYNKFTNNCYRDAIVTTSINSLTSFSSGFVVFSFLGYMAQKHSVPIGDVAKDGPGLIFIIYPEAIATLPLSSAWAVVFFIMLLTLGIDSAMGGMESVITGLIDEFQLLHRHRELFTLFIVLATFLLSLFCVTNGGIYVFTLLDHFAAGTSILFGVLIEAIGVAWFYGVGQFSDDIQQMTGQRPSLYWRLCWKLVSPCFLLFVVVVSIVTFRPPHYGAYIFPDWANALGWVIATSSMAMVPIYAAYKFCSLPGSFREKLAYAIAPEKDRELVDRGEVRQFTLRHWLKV

With `O=c1[nH]cnc2c1ncn2[C@H]1CC[C@@H](CO)O1` [DIDANOSINE], the IC50 entry (in assay [1] (hek293); against Histamine H2 receptor (cho-k1); in assay [2]; in assay [3]; in assay [4]; in assay [5]) was “Not Active” each time. Moreover, the Ki entry in assay [2] and in assay [4] was “Not Active” throughout.

For `CC1(COc2ccc(CC3SC(=O)NC3=O)cc2)CCCCC1` (stereo not drawn) [CIGLITAZONE], the IC50 entry (in assay [1] (hek293); against Histamine H2 receptor (cho-k1); in assay [2]; in assay [3]; in assay [4]; in assay [5]) was “Not Active” throughout. Further, the Ki result in assay [2] and in assay [4] was “Not Active” in each case.

Consider `CC(=O)Nc1ccc2c(c1)Cc1ccccc1-2` [2-ACETYLAMINOFLUORENE], for which the IC50 result (in assay [1] (hek293); on Histamine H2 receptor (cho-k1); in assay [2]; in assay [3]; in assay [4]; in assay [5]) was “Not Active” in each case. Further, the Ki entry in assay [2] and in assay [4] was “Not Active” each time.

For `C[C@H](C(=O)O)c1ccc2oc(-c3ccc(F)cc3)nc2c1` [FLUNOXAPROFEN], the IC50 entry (in assay [1] (hek293); against Histamine H2 receptor (cho-k1); in assay [2]; in assay [3]; in assay [4]; in assay [5]) was “Not Active” each time. For the same compound, the Ki entry in assay [2] and in assay [4] was “Not Active” in each case.

In the case of `CC(C)Cn1cnc2c(N)nc3ccccc3c21` [IMIQUIMOD], the IC50 is 2620 nM in assay [1] (read-out: IC50); 1510 nM on Histamine H2 receptor (read-out: IC50); “Not Active” in assay [2]; “Not Active” in assay [3]; “Not Active” in assay [4]; “Not Active” in assay [5]. Moreover, the Ki in assay [1] (read-out: Ki) is 1290 nM; on Histamine H2 receptor (read-out: Ki), 1480 nM; in assay [2] it was “Not Active”; in assay [4] it was “Not Active”.

On to `OC[C@H]1OC2C3[C@@H](CO)OC(O[C@H]4[C@H](O)[C@@H](O)[C@@H](O[C@H]5[C@H](O)[C@@H](O)[C@@H](O[C@H]6[C@H](O)[C@@H](O)[C@@H](O[C@H]7[C@H](O)[C@@H](O)[C@@H](O[C@H]8[C@H](O)[C@@H](O)[C@@H](O[C@H]9[C@H](O)[C@@H](O)C(OC1[C@H](O)[C@H]2O)O[C@@H]9CO)O[C@@H]8CO)O[C@@H]7CO)O[C@@H]6CO)O[C@@H]5CO)O[C@@H]4CO)[C@H](O)[C@H]3O`, for which the IC50 entry (in assay [1] (hek293); at Histamine H2 receptor (cho-k1); in assay [2]; in assay [3]; in assay [4]; in assay [5]) was “Not Active” in each case. Besides, the Ki result in assay [2] and in assay [4] was “Not Active” in each case.

Take `CCN1CCN(c2cc3c(cc2F)c(=O)c(C(=O)O)cn3C2CC2)CC1` [ENROFLOXACIN]: the IC50 result (in assay [1] (hek293); against Histamine H2 receptor (cho-k1); in assay [2]; in assay [3]; in assay [4]; in assay [5]) was “Not Active” throughout. Besides, the Ki result in assay [2] and in assay [4] was “Not Active” throughout.

With POVIDONE, the IC50 result (in assay [1] (hek293); against Histamine H2 receptor (cho-k1); in assay [2]; in assay [3]; in assay [4]; in assay [5]) was “Not Active” in each case. Moreover, the Ki result (in assay [1] (hek293); at Histamine H2 receptor (cho-k1); in assay [2]; in assay [3]; in assay [4]; in assay [5]) was “Not Active” in each case.

For the compound `C=C(Cl)Cl` [1,1-DICHLOROETHENE], the IC50 result (in assay [1] (hek293); on Histamine H2 receptor (cho-k1); in assay [2]; in assay [3]; in assay [4]; in assay [5]) was “Not Active” each time. The Ki entry in assay [2] and in assay [4] was “Not Active” throughout.

Turning to `C#C[C@]1(O)CC[C@H]2[C@@H]3CCC4=CC(=O)CC[C@@H]4[C@H]3CC[C@@]21C` [NORETHINDRONE], the IC50 entry (in assay [1] (hek293); against Histamine H2 receptor (cho-k1); in assay [2]; in assay [3]; in assay [4]; in assay [5]) was “Not Active” in each case. The Ki entry in assay [2] and in assay [4] was “Not Active” in each case.

`C=CCN1CC[C@]23c4c5ccc(O)c4O[C@H]2/C(=N/N=C2\CC[C@@]4(O)[C@H]6Cc7ccc(O)c8c7[C@@]4(CCN6CC=C)[C@H]2O8)CC[C@@]3(O)[C@H]1C5` [NALOXONAZINE]: the IC50 entry (in assay [1] (hek293); at Histamine H2 receptor (cho-k1); in assay [2]; in assay [3]; in assay [4]; in assay [5]) was “Not Active” each time. The Ki result in assay [2] and in assay [4] was “Not Active” each time.

As for `Oc1ncnc2[nH]ncc12` [ALLOPURINOL], the IC50 result (in assay [1] (hek293); on Histamine H2 receptor (cho-k1); in assay [2]; in assay [3]; in assay [4]; in assay [5]) was “Not Active” throughout. Also, the Ki entry in assay [2] and in assay [4] was “Not Active” in each case.

As to `CCC1(c2ccccc2)C(=O)NC(=O)NC1=O` [PHENOBARBITAL], the IC50 entry (in assay [1] (hek293); at Histamine H2 receptor (cho-k1); in assay [2]; in assay [3]; in assay [4]; in assay [5]) was “Not Active” in each case. In addition, the Ki result in assay [2] and in assay [4] was “Not Active” each time.

With CHROMIC CHLORIDE, the IC50 entry (in assay [1] (hek293); on Histamine H2 receptor (cho-k1); in assay [2]; in assay [3]; in assay [4]; in assay [5]) was “Not Active” each time. Moreover, the Ki result (in assay [1] (hek293); on Histamine H2 receptor (cho-k1); in assay [2]; in assay [3]; in assay [4]; in assay [5]) was “Not Active” in each case.

Turning to `CCCCCCNC(=O)n1cc(F)c(=O)[nH]c1=O` [CARMOFUR], the IC50 entry (in assay [1] (hek293); at Histamine H2 receptor (cho-k1); in assay [2]; in assay [3]; in assay [4]; in assay [5]) was “Not Active” throughout. Besides, the Ki result in assay [2] and in assay [4] was “Not Active” each time.

In the case of `O=C(O)CCc1nc(-c2ccccc2)c(-c2ccccc2)o1` [OXAPROZIN], the IC50 entry (in assay [1] (hek293); against Histamine H2 receptor (cho-k1); in assay [2]; in assay [3]; in assay [4]; in assay [5]) was “Not Active” in each case. Further, the Ki result in assay [2] and in assay [4] was “Not Active” throughout.
